Measured values from patent EP0848706B1, “SUBSTITUTED BENZENE-FUSED HETEROCYCLICS AS NEUROKININ ANTAGONISTS” (SCHERING CORPORATION, priority 1995, dated 1996).
Where two headings read alike, the source gives them in different places.

Columns and labels:
NK3 = biological target: T1, NK3 (Homo sapiens, UniProt P29371); assay: NK3 activity, procedure similar to the literature (Molecular Pharmacol., 48 (1995), p. 711-716); format: binding
T1 sequence (P29371 1-465): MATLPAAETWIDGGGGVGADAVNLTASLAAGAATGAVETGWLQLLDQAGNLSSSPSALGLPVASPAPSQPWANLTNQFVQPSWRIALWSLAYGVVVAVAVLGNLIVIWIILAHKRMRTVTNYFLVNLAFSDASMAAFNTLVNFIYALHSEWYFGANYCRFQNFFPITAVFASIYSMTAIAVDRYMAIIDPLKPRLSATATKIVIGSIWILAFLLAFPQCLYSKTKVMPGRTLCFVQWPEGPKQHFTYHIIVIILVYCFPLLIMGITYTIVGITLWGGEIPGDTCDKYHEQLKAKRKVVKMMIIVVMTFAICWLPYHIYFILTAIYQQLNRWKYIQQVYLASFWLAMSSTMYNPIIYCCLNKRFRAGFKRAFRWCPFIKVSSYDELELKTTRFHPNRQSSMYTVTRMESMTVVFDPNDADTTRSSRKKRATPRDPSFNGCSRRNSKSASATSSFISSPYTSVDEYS
Protocol: NK3 activity is determined by following a procedure similar to that described in the literature, e.g., Molecular Pharmacol., 48 (1995), p. 711-716.

human NK-2 receptor = biological target: T2, human NK-2 receptor (Homo sapiens, UniProt P21452); assay: Neurokinin receptor binding assay, NK-2 ([3H]-Neurokinin A, CHO cell membranes); conditions: for Ki: Ki according to Cheng and Prusoff from competition binding curves, read-out: Ki (NK2); for inhibition at 1 µM: read-out: % Inhibition NK2 (1µM dose)
T2 construct: expressed in transfected cells; host or cells: Chinese Hamster ovary (CHO) cells
T2 sequence (P21452 1-398): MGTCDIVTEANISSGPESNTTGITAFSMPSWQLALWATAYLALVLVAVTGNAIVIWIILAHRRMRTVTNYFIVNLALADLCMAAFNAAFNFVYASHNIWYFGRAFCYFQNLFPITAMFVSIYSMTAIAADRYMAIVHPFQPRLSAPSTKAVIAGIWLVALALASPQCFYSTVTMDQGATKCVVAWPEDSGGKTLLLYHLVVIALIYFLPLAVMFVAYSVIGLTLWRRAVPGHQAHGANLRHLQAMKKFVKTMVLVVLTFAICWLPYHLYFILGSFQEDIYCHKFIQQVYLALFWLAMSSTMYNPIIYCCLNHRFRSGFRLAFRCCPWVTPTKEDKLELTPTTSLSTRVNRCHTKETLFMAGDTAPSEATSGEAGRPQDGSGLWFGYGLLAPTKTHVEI
Protocol: (§1) Chinese Hamster ovary (CHO) cells transfected with the coding regions for the human neurokinin 1 (NK1) of the human neurokinin 2 (NK2) receptors are grown in Dulbecco's minimal essential medium supplemented with 10% fetal calf serum, 0.1 mM non-essential amino acids, 2 mM glutamine, 100units/ml of penicillin and streptomycin, and 0.8 mg of G418/ml at 37°C in a humidified atmosphere containing 5% CO2.
(§2) Cells are detached from T-175 flasks with a sterile solution containing 5mM EDTA in phosphate buffered saline. Cells are harvested by centrifugation and washed in RPMI media at […] for 5 minutes. The pellet is resuspended inTris-HCl (pH7.4) containing 1 uM phsphoramidon and 4 ug/ml of chymostatin at a cell density of 30 x 10^6 cells/ml. The suspension is then homogenized in a Brinkman Polytron (setting 5) for 30-45 seconds. The homogenate is centrifuged at 800 x g for 5 min at 4°C to collect unbroken cells and nuclei. The supernatant is centrifuged in a Sorvall RC5C at 19,000 rpm ([…]) for 30 min at 4°C. The pellet is resuspended, an aliquot is removed for a protein determination (BCA) and washed again. The resulting pellet is stored at -80°C.
(§3) To assay receptor binding, 50 µl of [^3H]-Substance P (9-Sar, 11-Met) (specific activity 41 Ci/mmol) (Dupont-NEN) (0.8 nM for the NK-1 assay) or [^3H]-Neurokinin A (specific activity 114 Ci/ mmole) (Zenca) (1.0 nM for the NK-2 assay) is added to tubes containing buffer (50 mM Tris-HCl (pH 7.4) with 1 mM MnCl2 and 0.2% Bovine Serum Albumin) and either DMSO or test compound. Binding is initiated by the addition of 100µl of membrane (10-20 µg) containing the human NK-1 or NK-2 receptor in a final volume of 200 µl. After 40 minutes at room temperature, the reaction is stopped by rapid filtration onto Whatman GF/C filters which have been presoaked in 0.3% polyethylenimine. Filters are washed 2 times with 3 ml of 50 mM Tris-HCl (pH7.4). Filters are added to 6 mls of Ready-Safe liquid scintillation cocktail and quantified by liquid scintillation spectrometry in a LKB 1219 RackBeta counter. Non-specific binding is determined by the addition of either 1 µM of CP-99994 (NK-1) or 1µM SR-48968 (NK-2) (both synthesized by the chemistry department of Schering-Plough Research Institute). IC50 values are determined from competition binding curves and Ki values are determined according to Cheng and Prusoff using the experimentally determined value of 0.8 nM for the NK-1 receptor and 2.4 nM for the NK-2 receptor.
(§4) % Inhibition is the difference between the percent of maximum specific binding (MSB) and 100%. The percent of MSB is defined by the following equation, wherein "dpm" is disintegrations per minute: % MSB =((dpm of unknown) - (dpm of nonspecific binding))/((dpm of total binding) - (dpm of nonspecific binding))X 100 [formula]

human NK-1 receptor = biological target: T3, human NK-1 receptor (Homo sapiens, UniProt P25103); assay: Neurokinin receptor binding assay, NK-1 ([3H]-Substance P, CHO cell membranes); conditions: for Ki: Ki according to Cheng and Prusoff from competition binding curves, read-out: Ki(NK1); for inhibition at 1 µM: read-out: % Inhibition NK1 (1µM dose)
T3 construct: expressed in transfected cells; host or cells: Chinese Hamster ovary (CHO) cells
Protocol: as §1, §2, §3, §4

[1] = 1µM dose, % inhibition = 100% minus percent of maximum specific binding

T3 sequence (P25103 whole entry): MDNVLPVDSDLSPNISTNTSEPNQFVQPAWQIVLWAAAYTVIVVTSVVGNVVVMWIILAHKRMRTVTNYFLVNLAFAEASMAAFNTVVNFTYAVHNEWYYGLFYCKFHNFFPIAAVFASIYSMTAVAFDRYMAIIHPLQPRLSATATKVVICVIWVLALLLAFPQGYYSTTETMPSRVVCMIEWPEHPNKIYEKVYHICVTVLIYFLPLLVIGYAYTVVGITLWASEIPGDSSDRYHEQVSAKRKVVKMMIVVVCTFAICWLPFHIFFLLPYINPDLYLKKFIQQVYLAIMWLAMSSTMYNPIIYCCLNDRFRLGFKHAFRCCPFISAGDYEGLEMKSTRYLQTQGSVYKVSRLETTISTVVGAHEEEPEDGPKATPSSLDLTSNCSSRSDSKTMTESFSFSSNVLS

Ki (human NK-2 receptor)	Ki (human NK-1 receptor)	inhibition at 1 µM (human NK-2 receptor; [1])	inhibition at 1 µM (human NK-1 receptor; [1])	SMILES	Ki (NK3)	inhibition at 1 µM (human NK-2 receptor)	inhibition at 1 µM (human NK-1 receptor)
0.059 µM	0.165 µM	96%	69%	CN(CCc1c[nH]c2ccccc12)CCC(CN(C)C(=O)c1ccc2c(c1)OCO2)c1ccc(Cl)c(Cl)c1 (stereo not shown) [Example 12a]			
0.25 µM	0.023 µM			C=CCN(CCc1c[nH]c2ccccc12)CCC(CN(C)C(=O)c1cc(OC)c(OC)c(OC)c1)c1ccc(Cl)c(Cl)c1 (stereo not shown) [Example 9b]			
0.03 µM	0.233 µM			COc1cc(OC)cc(C(=O)N2CCC(CCN(C)CCc3c[nH]c4ccccc34)(c3ccc(Cl)c(Cl)c3)C2)c1 (stereo not shown) [Example 14a]			

Second part, the compound before the results:

SMILES	Ki (human NK-2 receptor)	Ki (human NK-1 receptor)	inhibition at 1 µM (human NK-2 receptor; [1])	inhibition at 1 µM (human NK-1 receptor; [1])	Ki (NK3)	inhibition at 1 µM (human NK-2 receptor)	inhibition at 1 µM (human NK-1 receptor)
COc1cc(C(=O)N(C)CC(CCN(C)CCc2c[nH]c3ccccc23)c2ccc(Cl)c(Cl)c2)cc(OC)c1OC (stereo not shown) [Example 2]	0.033 µM	0.025 µM			0.448 µM	87%	81%
COc1cc(C(=O)N(C)CC(CCN(C)CCc2c[nH]c3ccc(F)cc23)c2ccc(Cl)c(Cl)c2)cc(OC)c1OC (racemic) [Example 7c]	0.01 µM	0.012 µM				100%	
